We go through 38 compounds from patent publication US9586905B2, “Benzoazepine derivative and medical use thereof” (SANWA KAGAKU KENKYUSHO CO., LTD., priority 2012, dated 2017).

This test concerns the target T1, human V2 receptor (Homo sapiens, UniProt P30518).
T1 construct: A DNA fragment containing a human V2 receptor code region; expressed in transfected cells
Put plainly: cAMP production test in V2 receptor expression cell. In kind it is cell-based. As to conditions: for EC50: human V2 receptor expression cell, 30 minutes at room temperature, HTRF cAMP kit; for Emax: maximum reaction by 8-AVP assumed to be 100%. The protocol:
Pharmacological Test (1) Preparation of Human V2 Receptor Expression Cell
A DNA fragment containing a human V2 receptor code region was inserted into an expression vector of a vertebrate cell. The expression vector was genetically introduced into an animal cell to have the human V2 receptor express in the surface of the cell. Since the expression vector could express a neo gene which functions as a G418 resistance marker, it was cultured in a G418-containing medium, thereby selectively obtaining a human V2 receptor stable expression cell.
(2) cAMP Production Test in V2 Receptor Expression Cell
The human V2 receptor expression cell, which was prepared in the above described method, was recovered and resuspended into an incubation buffer (F-12 medium, 20 mM HEPES), and 5 μl of the cell was then divided into a 384-well plate with a density of 15,000 cells/well. 5 μl of a compound solution or an 8-AVP ((Arg^8)-vasopressin) solution, which was diluted with an assay buffer (F-12 medium, 20 mM HEPES, 1 mM IBMX), (total 10 μl/well) was added to each well (final concentration: 15,000 cells/well, 500 μM IBMX, 1% dimethyl sulfoxide). After incubation at room temperature for 30 minutes, a cAMP production amount was measured using a commercially available HTRF cAMP kit (Cisbio Inc.) according to the described protocol. Excel Fit was used in order to find EC50 and Emax values of the test compound.
(cAMP levels reflect the balance of adenylyl cyclase and phosphodiesterase activity.)

T1 sequence (P30518 whole entry, the tested form may be a part): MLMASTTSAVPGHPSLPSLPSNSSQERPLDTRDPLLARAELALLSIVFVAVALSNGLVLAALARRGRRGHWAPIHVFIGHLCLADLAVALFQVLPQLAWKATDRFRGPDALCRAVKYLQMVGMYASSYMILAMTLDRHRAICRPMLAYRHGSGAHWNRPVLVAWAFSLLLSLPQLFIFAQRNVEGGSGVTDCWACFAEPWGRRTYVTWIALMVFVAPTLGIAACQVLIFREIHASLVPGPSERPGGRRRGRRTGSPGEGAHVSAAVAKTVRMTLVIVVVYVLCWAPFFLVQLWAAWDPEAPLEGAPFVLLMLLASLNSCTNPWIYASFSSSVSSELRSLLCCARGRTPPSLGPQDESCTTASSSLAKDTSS

The term EC50 denotes the midpoint of the concentration-response curve. Read a low EC50 as an effect from little substance. What is called Emax is the greatest response seen or fitted, relative to the assay's reference. Turning to `COC(=O)C1(C)CCN(C(=O)c2ccc(N3CCCC3)cc2Cl)c2ccccc2C1` (racemic) [Example 31], the response was half-maximal at 7.9 nM (EC50) and the Emax came to 102%.
On the same counts, the results for `CCCOc1ccc(C(=O)N2CCC(C)(C(=O)OC)Cc3ccccc32)c(Cl)c1` (racemic) [Example 32] are 9.1 nM and 104%.
For `COC(=O)C1(C)CCN(C(=O)c2ccc(-c3ncco3)cc2Cl)c2ccccc2C1` (racemic) [Example 33], the concentration giving a half-maximal response (EC50) turned out to be 20 nM and the maximum response (Emax) came to 96%.
For `COC(=O)C1(C)CCN(C(=O)c2ccc(-n3cccn3)cc2Cl)c2ccccc2C1` (racemic) [Example 34], in that order: 9.8 nM and 98%.
For `COC(=O)C1Cc2ccccc2N(C(=O)c2ccc(N3CCCC3)cc2Cl)CC1C` (racemic) [Example 42], in that order: 0.8 nM and 103%.
`COC(=O)C1(F)Cc2ccccc2N(C(=O)c2ccc(N3CCCC3)cc2Cl)CC1C` (racemic) [Example 43] had an EC50 of 0.1 nM and an Emax of 102%.
On the same counts, the results for `CC1(C(=O)O)CCN(C(=O)c2ccc(N3CCCC3)cc2Cl)c2ccccc2C1` (racemic) [Example 49, 1-[2-chloro-4-(pyrrolidine-1-yl)benzoyl)-4-methyl-2,3,4,5-tetrahydro-1H-benzo[b]azepine-4-carboxylic acid] are 0.5 nM and 102%.
For `CCCOc1ccc(C(=O)N2CCC(C)(C(=O)O)Cc3ccccc32)c(Cl)c1` (racemic) [Example 50, 1-(2-chloro-4-propoxybenzoyl)-4-methyl-2,3,4,5-tetrahydro-1H-benzo[b]azepine-4-carboxylic acid], in that order: 0.9 nM and 100%.
The compound `CC1(C(=O)O)CCN(C(=O)c2ccc(-c3ncco3)cc2Cl)c2ccccc2C1` (racemic) [Example 51, 1-[2-chloro-4-(oxazol-2-yl)benzoyl]-4-methyl-2,3,4,5-tetrahydro-1H-benzo[b]azepine-4-carboxylic acid] yielded an EC50 of 6 nM and an Emax of 73%.
On the same counts, the results for `CC1(C(=O)O)CCN(C(=O)c2ccc(-n3cccn3)cc2Cl)c2ccccc2C1` (racemic) [Example 52, 1-[2-chloro-4-(1H-pyrazol-1-yl)benzoyl]-4-methyl-2,3,4,5-tetrahydro-1H-benzo[b]azepine-4-carboxylic acid] are 3.9 nM and 85%.
For `Cc1ccn(-c2ccc(C(=O)N3C[C@@H](C)C(C)(C(=O)O)Cc4ccccc43)c(C)c2)n1` (mixture of isomers) [Example 55, (3S)-3,4-dimethyl-1-[2-methyl-4-(3-methyl-1H-pyrazol-1-yl)benzoyl]-2,3,4,5-tetrahydro-1H-benzo[b]azepine-4-carboxylic acid], in that order: 0.2 nM and 101%.
On to `C[C@@H]1CN(C(=O)c2ccc(N3CCCC3)cc2Cl)c2ccccc2CC1C(=O)O` (mixture of isomers) [Example 56, (3S)-1-[2-chloro-4-(pyrrolidine-1-yl)benzoyl]-3-methyl-2,3,4,5-tetrahydro-1H-benzo[b]azepine-4-carboxylic acid], for which the 50% effective concentration (EC50) stood at 0.1 nM and the Emax came out at 102%.
For `C[C@@H]1CN(C(=O)c2ccc(N3CCCC3)cc2Cl)c2ccccc2CC1(F)C(=O)O` (mixture of isomers) [Example 57, (3R)-1-[2-chloro-4-(pyrrolidine-1-yl)benzoyl]-4-fluoro-3-methyl-2,3,4,5-tetrahydro-1H-benzo[b]azepine-4-carboxylic acid], in that order: 0.2 nM and 102%.
On the same counts, the results for `Cc1cc(N2CCC(C)C2)ccc1C(=O)N1CCC(C)(C(=O)NCC(N)=O)Cc2ccccc21` (racemic) [Example 69] are 0.53 nM and 101%.
`CC(C)C(NC(=O)C1(C)CCN(C(=O)c2ccc(OCCCF)cc2Cl)c2ccccc2C1)C(N)=O` (racemic) [Example 73] displayed an EC50 of 1.9 nM and a maximal response (Emax) of 100%.
On the same counts, the results for `Cc1nnc(NC(=O)C2(C)CCN(C(=O)c3ccc(N4CCCC4)cc3Cl)c3ccccc3C2)o1` (racemic) [Example 79] are 0.9 nM and 100%.
On the same counts, the results for `CCNC(=O)CNC(=O)C1(C)CCN(C(=O)c2ccc(N3CCCC3)cc2Cl)c2ccccc2C1` (racemic) [Example 80] are 2.8 nM and 101%.
For the compound `CCN(CC)C(=O)CNC(=O)C1(C)CCN(C(=O)c2ccc(N3CCCC3)cc2Cl)c2ccccc2C1` (racemic) [Example 81], the EC50 came to 6.6 nM and the Emax was 100%.
As to `CC1(C(=O)NCc2nnco2)CCN(C(=O)c2ccc(N3CCCC3)cc2Cl)c2ccccc2C1` (racemic) [Example 82], a half-maximal response (EC50) required 1.1 nM and the Emax stood at 101%.
On the same counts, the results for `CCCOc1ccc(C(=O)N2CCC(C)(C(=O)NC(C)CO)Cc3ccccc32)c(Cl)c1` (racemic) [Example 83] are 3.4 nM and 100%.
For `CCCOc1ccc(C(=O)N2CCC(C)(C(=O)NCC(N)=O)Cc3ccccc32)c(Cl)c1` (racemic) [Example 84], in that order: 2.5 nM and 100%.
On the same counts, the results for `CC(CO)NC(=O)C1(C)CCN(C(=O)c2ccc(-c3ncco3)cc2Cl)c2ccccc2C1` (racemic) [Example 85] are 15 nM and 94%.
On to `CC1(C(=O)NCC(N)=O)CCN(C(=O)c2ccc(-c3ncco3)cc2Cl)c2ccccc2C1` (racemic) [Example 86], for which the EC50 was determined as 17 nM and the maximal response (Emax) was determined as 88%.
For `CC(CO)NC(=O)C1(C)CCN(C(=O)c2ccc(-n3cccn3)cc2Cl)c2ccccc2C1` (racemic) [Example 87], in that order: 9.5 nM and 97%.
`CC1(C(=O)NCC(N)=O)CCN(C(=O)c2ccc(-n3cccn3)cc2Cl)c2ccccc2C1` (racemic) [Example 88] gave a concentration for a half-maximal effect (EC50) of 8.1 nM and a maximum response (Emax) of 93%.
On the same counts, the results for `Cc1cc(N2CCC(C)C2)ccc1C(=O)N1CCC(F)(C(N)=O)Cc2ccccc21` (racemic) [Example 94] are 0.41 nM and 101%.
For `Cc1cc(N2CCC(C)C2)ccc1C(=O)N1CCC(F)(C(=O)NCC(N)=O)Cc2ccccc21` (racemic) [Example 95], in that order: 0.99 nM and 102%.
In the case of `Cc1ccn(-c2ccc(C(=O)N3CC(C)C(C)(C(=O)NCC(N)=O)Cc4ccccc43)c(C)c2)n1` (racemic) [Example 97], the EC50 stood at 0.56 nM and the maximal response (Emax) was 102%.
As to `CC(CO)NC(=O)C1Cc2ccccc2N(C(=O)c2ccc(N3CCCC3)cc2Cl)CC1C` (racemic) [Example 98], it took 1 nM to reach a half-maximal effect (EC50) and the Emax worked out at 101%.
As for `CC1CN(C(=O)c2ccc(N3CCCC3)cc2Cl)c2ccccc2CC1C(=O)NCC(N)=O` (racemic) [Example 99], the EC50 is 0.4 nM and the maximal response (Emax) stood at 102%.
The compound `CC(CO)NC(=O)C1(F)Cc2ccccc2N(C(=O)c2ccc(N3CCCC3)cc2Cl)CC1C` (racemic) [Example 100] displayed a concentration giving a half-maximal response (EC50) of 3 nM and a maximal effect (Emax) of 100%.
Compound `CC1CN(C(=O)c2ccc(N3CCCC3)cc2Cl)c2ccccc2CC1(F)C(=O)NCC(N)=O` (racemic) [Example 101] yielded a concentration for a half-maximal effect (EC50) of 1.1 nM and an Emax of 102%.
For `COC(=O)C1(C)CCN(C(=O)c2ccc(-n3ccc(C)n3)cc2C(F)(F)F)c2ccccc2C1` (single isomer, unassigned) [Example 35], in that order: 1.4 nM and 102%.
`COC(=O)C1(F)CCN(C(=O)c2ccc(N3CCCC3)cc2C)c2ccccc2C1` (single isomer, unassigned) [Example 38] had a concentration giving a half-maximal response (EC50) of 0.06 nM and an Emax of 101%.
With `Cc1cc(N2CCCC2)ccc1C(=O)N1CCC(C)(C(=O)O)Cc2ccccc21` (single isomer, unassigned) [Example 45, 4-methyl-1-[2-methyl-4-(pyrrolidine-1-yl)benzoyl]-2,3,4,5-tetrahydro-1H-benzo[b]azepine-4-carboxylic acid], the EC50 amounted to 0.34 nM and the Emax worked out at 102%.
`Cc1cc(N2CCCC2)ccc1C(=O)N1CCC(F)(C(=O)O)Cc2ccccc21` (single isomer, unassigned) [Example 54, 4-fluoro-1-[2-methyl-4-(pyrrolidine-1-yl)benzoyl]-2,3,4,5-tetrahydro-1H-benzo[b]azepine-4-carboxylic acid] returned an EC50 of 0.28 nM and an Emax of 102%.
On the same counts, the results for `Cc1cc(N2CCCC2)ccc1C(=O)N1CCC(C)(C(=O)NC(C)C(N)=O)Cc2ccccc21` (single isomer, unassigned) [Example 68] are 0.74 nM and 102%.
On the same counts, the results for `CC(NC(=O)C1(C)CCN(C(=O)c2ccc(OCC(F)(F)F)cc2Cl)c2ccccc2C1)C(N)=O` (single isomer, unassigned) [Example 76] are 0.99 nM and 102%.
